Experimental data: patent US6599499B1, “Uses of diterpenoid triepoxides as an anti-proliferative agent” (priority 1999, dated 2003)

Columns and labels:
p53 null (−/−) MEFs = test: Cell viability of p53-/- mouse embryonic fibroblasts; settings: Fibroblast, read-out: reduction of cell viability
Method: Cell culture and luciferase assay. A549 (non-small cell lung cancer), HT-1080 (fibrosarcoma), and MCF-7 (breast cancer) cells were cultured in the appropriate media with 10% FCS supplemented with L-glutamine, penicillin, and streptomycin. p53 wild-type (+/+) and null (−/−) Mouse Embryonic Fibroblasts (MEFs) transfected with the E1A/Ras were grown in DMEM containing 15% FCS supplemented with L-glutamine, penicillin, and streptomycin. Transfections were done on MCF-7 cells using the lipofectamine Plus reagent. At 24 hours after transfection, MCF-7 cells were left untreated or treated with triptolide (20 ng/ml) or doxorubicin (100 nM) for 4, 8, and 16 hours and cells were collected for luciferase assay. Luciferase activity was measured in samples with equal protein concentration with a Luminometer (Analytical Luminescence Laboratory, San Diego, Calif.).
Cell viability assay. Cell viability was measured by an 3-(4,5-dimethylthiazol-2-yl)-2,5-diphenyltetrazolium bromide (MTT) assay as described above. Untreated or cells treated with triptolide and/or doxorubicin were harvested at the indicated times followed by the addition of MTT to the cells in a 96-well plate. Cells were solubilized with […] acidified with 0.1N HCl. The 96-plate was read at a wavelength of 590 nm on an iEMS Labsystems plate reader.

Dx5 and H23 cells = test: Growth arrest / cell cycle progression in Dx5 and H23 cells; type: cell-based, human
p53 translation = p53 translation by 35S methionine metabolic labeling of HT1080 cells; type: cell-based, human; settings: HT1080, triptolide 20 ng/ml pretreatment 6 h
Method: Metabolic Labeling of HT1080 Cells. Cells were grown to 80% confluence followed by pretreatment with triptolide (20 ng/ml) for 6 h in the appropriate medium. Cells were washed twice with short term labeling medium (RPMI with 5% dialyzed fetal calf serum supplemented with L-glutamine, penicillin, and streptomycin). To deplete intracellular pools of methionine, short term labeling medium was added for 15 min at 37° C. and then replaced by short term labeling medium containing 0.1 mCi/ml [35S]methionine (Amersham Pharmacia Biotech). Cells were labeled for 30 min at 37° C. and washed with ice-cold PBS before harvesting for immunoprecipitation. The cells were lysed using RIPA buffer supplemented with protease inhibitors and immunoprecipitated using an agarose-conjugated p53 mAb (Ab-6, Oncogene Research Products) followed by 10% SDS-PAGE. The intensity of labeled p53 protein was measured by NIH Image 1.62.

Dx5 cells = test: Cell viability by annexin and propidium iodide staining/FACS with z-VAD.fmk, Dx5 cells; settings: Homo sapiens, read-out: cell viability in PG490-treated Dx5 cells
Method: Cell death reagents and assays. Cell viability was measured by an MTT assay as recently described (Lee et al. (1999) J. Biol. Chem. 274:13451-13455. z-VAD-fluoromethylketone (z-VAD.fmk) was obtained from Alexis Biochemicals, San Diego, Calif. The effect of z-VAD.fmk on cell viability was analyzed by annexin and propidium iodide staining followed by FACS analysis according to the manufacturer's protocol (Clontech Laboratories, Palo Alto, Calif.). The analysis of apoptosis in histologic sections was done by terminal deoxynucleotidyl transferase (TdT)-mediated d-UTP nick end labeling (TUNEL) of slides from paraffin sections of day 3 tumors harvested from the mice 24 h after the second of two daily treatments with PG490-88 or saline. TUNEL staining was done according to the manufacturer's protocol (Boehringer Mannheim, Indianapolis, Ind.) and then the histology slides were counterstained with methyl green. DNA was isolated from cells for analysis of internucleosomal DNA laddering followed by agarose gel electrophoresis and ethidium bromide staining.

p53 = p53 protein stability in the presence of cycloheximide; type: cell-based, human
Method: (§1) Immunoblot analysis using other antibodies was performed as described above. The band intensity was measured by NIH Image 1.62.
Immunoblotting. Cells were harvested at the conditions and times indicated and lysed using HNET buffer (50 mM HEPES, pH 7.5, 100 mM NaCl, 1 mM EGTA, and 1% Triton X-100) supplemented with 1 mM dithiothreitol, 1 mM phenylmethylsulfonyl fluoride, and protease inhibitors mixture (Roche Molecular Biochemicals). 100 μg of protein was loaded on 10% SDS-PAGE followed by transferring to polyvinylidene difluoride membrane. Immunoblotting was performed as described previously using a p53 mouse monoclonal antibody from Oncogene Research Products. […] Immunoblot analysis using other antibodies was performed as described above. The band intensity was measured by NIH Image 1.62.

p21 = p21 protein level by immunoblot in MCF-7 cells; type: cell-based, human; settings: triptolide-treated MCF-7 cells
Method: Immunoblotting. At 8 hours after triptolide and/or doxorubicin treatment cells were harvested at the times indicated and lysed using HNET buffer (50 mM HEPES pH 7.5, 100 mM NaCl, 1 mM EGTA, and 1% Triton X-100) supplemented with 1 mM DTT, 1 mM PMSF and protease inhibitors cocktail (Boehringer Mannheim, Germany). 35 μg of protein was loaded on 10% SDS-PAGE followed by transferring to PVDF membrane. Immunoblotting was performed as previously described using a p53 mouse monoclonal antibody from Oncogene Research Products (Lee et al. (1999) J Biol Chem 274:13451-5).
as §1

CC(C)[C@]12O[C@H]1[C@@H]1O[C@]13[C@]1(O[C@H]1C[C@H]1C4=C(CC[C@@]13C)C(=O)OC4)[C@@H]2O [PG490, triptolide]
cytotoxicity at 0.005 µg/mL (p53 null (−/−) MEFs): 15% | cytotoxicity at 0.01 µg/mL (p53 null (−/−) MEFs): 50% | growth arrest / cell cycle progression (Dx5 and H23 cells): did not cause growth arrest or significantly affect cell cycle progression | increase in p53 translation (p53 translation): 4.9 fold | viability at 0.02 µg/mL (Dx5 cells): 15% | p53 stability versus untreated cells (p53; HT1080, triptolide 20 ng/ml 0.5 h prior to cycloheximide 30 μg/ml): no difference from untreated cells at 60 min | p53 stability versus untreated cells (p53; MCF-7, triptolide 0.5 h prior to cycloheximide 30 μg/ml): no difference from untreated cells at 60 min | decrease in the level of p21 protein (p21): 3 fold
